The text below walks through data of patent publication US12539296B2, “Montelukast for the treatment of erosive hand osteoarthritis” (MMC INTELLECTUAL PROPERTY INSTITUTE, S.L., priority 2018, dated 2026).

In data set [1] the test system is patient with erosive hand osteoarthritis. Put plainly: Efficacy of topical treatment in one patient with erosive hand osteoarthritis (Example 6). To be noted: 12 weeks. The format is in vivo, human. The procedure:
After a wash-up period of several weeks, the patient started treatment with a topical formulation prepared as disclosed in example 3, with a dosage of about 10 mg daily per hand, spread on the affected zone for a period of 12 weeks.

Data set [2] has as its system patients with erosive hand osteoarthritis. Put plainly: Clinical observational study of oral 10 mg montelukast daily in patients with erosive hand osteoarthritis (Example 4). The format is in vivo, human. To be noted: 10 mg daily oral, 3 to 16 months. The procedure:
A preliminary clinical observational study was performed in patients suffering from erosive hand osteoarthritis.
50 patients with erosive hand osteoarthritis which were non-respondent or with limited response after treatment with analgesics and/or anti-inflammatories were selected for the study. The patients were administered 10 mg of montelukast daily by the oral route, using an orally dispersible composition prepared as disclosed in Example 1, according to a once-daily dosage regimen.
The following parameters were used to evaluate the efficacy of the treatment: (i) improvement in clinical symptoms; (ii) efficacy in pain relief; and (iii) improvement in radiological evaluation. All assessments were focused on one of the hands of the patients.
The improvement in clinical symptoms was assessed by evaluating the improvement in symptoms such as functionality, stiffness and deformity of the affected hand that entail an improvement in the quality of life of the patients.
For assessing the efficacy in pain relief, the patients were asked to evaluate the pain they felt using the visual analogue scale (VAS) methodology, both before the treatment and at the end of the treatment period.
For assessing the efficacy of the treatment in the radiological parameters of the hand, the following features in the affected joints were evaluated: a) edema, b) subchondral erosions, c) synovitis and d) tenosynovitis. These features were radiologically assessed by means of posteroanterior radiographs of the hand, performed before and after the treatment period. The treatment was considered to provide radiological improvement if there was observable improvement in at least two of the assessed features and no worsening in the remaining features.

The test system is the same in data set [3]. Put plainly: Clinical study of oral 20 mg montelukast daily in patients non-respondent to 10 mg (Example 5). The class given is in vivo, human. The procedure: For this study, 9 patients were selected from the previous study (Example 4) among those who were non-respondents to the treatment (10 mg montelukast daily).
In the present study, the patients were administered a daily dose of montelukast of 20 mg by the oral route, also using an orally dispersible composition prepared as disclosed in Example 1, according to a once-daily dosage regimen. The age of the patients ranged from 52 to 78 years.
As in the previous study, for assessing the efficacy in pain relief, the visual analogue scale (VAS) methodology was used, where the pain was assessed on a scale of 0 to 10.
For assessing the efficacy in hand functionality improvement, also a visual analogue scale (VAS) of 0 to 10 was also used, wherein 0 meant full functionality, i.e., full ability to hold objects, and 10 meant absence of functionality, i.e., inability to hold any object
The “initial” values mean the values before starting the treatment, and the “final” values mean the values after completing the treatment.

Data set [4] has as its system patients aged ≥6 years. To be noted: for example 200 mg/daily; cited from earlier work.
[5] abbreviates: 20 mg daily oral, beginning vs end of treatment.
Setting [6] is: topical gel of example 3, about 10 mg daily per hand.

As for `CCC(=O)O[C@]1(C(=O)COC(C)=O)CC[C@H]2[C@@H]3C[C@H](C)C4=CC(=O)C=C[C@]4(C)[C@H]3[C@@H](O)C[C@@]21C` [methylprednisolone aceponate], in data set [1] (topical, once daily), the radiological assessment result is “progression of the disease”. In addition, the “pain score (VAS, 0-10 scale) remaining under treatment” value in data set [1] (topical, once daily, no improvement in pain relief) is “higher than 5”.

For the molecule `CC(C)(O)c1ccccc1CC[C@@H](SCC1(CC(=O)O)CC1)c1cccc(/C=C/c2ccc3ccc(Cl)cc3n2)c1` [montelukast, 2-[1-[[(1R)-1-[3-[(E)-2-(7-chloroquinolin-2-yl)ethenyl]phenyl]-3-[2-(2-hydroxypropan-2-yl)phenyl]propyl]sulfanylmethyl]cyclopropyl]acetic acid], the “additional patients with no worsening of the assessed radiological parameters” value in data set [2] is listed as 10 patients. Further, the “patients with improvement after radiological evaluation (at least two features improved, none worse)” value in data set [2] (of 50 patients, posteroanterior radiographs) is recorded as 28 patients. The “patients reporting effective pain relief (VAS reduction of at least 2 units on 0 to 10 scale)” value in data set [2] (out of 45 patients with pain before treatment) is 28 patients. In data set [2] (radiological evaluation), the “patients with improvement in edema” value turned out to be 19 patients, the “patients with improvement in erosions” value was found to be 14 patients, the “patients with improvement in synovitis” value is 28 patients and the “patients with improvement in tenosynovitis” value turned out to be 18 patients. For the same molecule, in data set [2] (once-daily, of 50 patients), the “patients with improvement in clinical symptoms (functionality, stiffness, deformity)” value amounted to 32 patients. Moreover, in data set [3] (20 mg daily oral), the “proportion of patients not responding to 10 mg daily that showed pain relief” value was about 70%. For the same molecule, in data set [3] (20 mg daily oral, 9 patients), the adverse effects reported entry is recorded as “No adverse effects”. The “improvement in hand functionality” value in data set [3] (20 mg daily oral, all patients) turned out to be 35%. Moreover, the “pain relief in the responding patients” value in data set [3] (20 mg daily oral, almost 70% of the patients) was 55%. Moreover, in data set [3] (setting [5]), the “final VAS hand functionality score, mean” value came out at 4.56±0.39 and the “final VAS pain score, mean” value turned out to be 3.89±0.54. Besides, the “VAS hand functionality final, Min - Max” value in data set [3] (after completing 20 mg daily oral treatment, individual values) was 3-6. Moreover, the “VAS pain final, Min - Max” value in data set [3] (after completing 20 mg daily oral treatment, individual values, scale 0 to 10) is listed as 1-6. In data set [3] (after completing 20 mg daily oral treatment, scale 0 (full functionality) to 10 (absence)), the “VAS hand functionality final, Mean” value was found to be 4.56. In addition, the “VAS pain final, Mean” value in data set [3] (after completing 20 mg daily oral treatment, scale 0 to 10, 9 patients) was determined as 3.89. In addition, in data set [3] (before starting 20 mg daily oral treatment (baseline), individual values), the “VAS hand functionality initial, Min - Max” value is 5-8. For the same molecule, in data set [3] (before starting 20 mg daily oral treatment (baseline), individual values, scale 0 to 10), the “VAS pain initial, Min - Max” value was 5-9. In addition, in data set [3] (before starting 20 mg daily oral treatment (baseline), scale 0 (full functionality) to 10 (absence)), the “VAS hand functionality initial, Mean” value is 7.00. For the same molecule, the “VAS pain initial, Mean” value in data set [3] (before starting 20 mg daily oral treatment (baseline), scale 0 to 10, 9 patients) is listed as 7.00. In data set [1] (setting [6]), the “clinical symptoms of osteoarthritis” value was “improvement in the clinical symptoms” and the pain relief result is listed as “significant pain relief”. Besides, in data set [4], the “adverse effects at high doses” value is “does not cause adverse effects”.
